Entries after “also recorded” stand apart in the source; their conditions may differ. Where two headings read alike, the source gives them in different places.
Experiments:
[1] = target: T1, topo IIα (Homo sapiens, UniProt P11388); assay: Nuclear-cytoplasmic fractionation and Western blot for topo IIα; assay type: cell-based; details: high-density RPMI-H929 cells, 25 μM, FIG. 13 legend
T1 construct: effect on the intracellular location of topo IIα in treated MM cells; endogenous in cells; host or cells: human multiple myeloma cells NCI-H929
Experimental: FIGS. 13(A) and (B) are blots from nuclear (nuc)-cytoplasmic (cyto) fractionation of high-density MM cells (n=2). […] Human myeloma RPMI-H929 cells were treated for 24 hours. Cells were then chemically separated into nuclear and cytoplasmic fractions.
Human myeloma cells were placed at plateau concentrations (4×10^6 cells/ml), and NES inhibitors were added at 25 μM for 20 hours. Cells were collected, washed in PBS, and fractionated by a method adapted from Li et al. (Li Y, Bor Y C, Misawa Y, Xue Y, Rekosh D, Hammarskjold M L. An intron with a constitutive transport element is retained in a Tap messenger RNA. Nature 2006; 443: 234-7). Separated fractions containing nuclei or precipitated cytosol were dissolved in 2% SDS buffer and assayed by SDS-PAGE Western blot analysis. Blots were probed with an anti-topo IIα Kis1 antibody (Millipore Corp.). […] Cells grown at log-phase concentrations were also fractionated. After MM cells were treated with NCI-9138 at 25 μM for 20 hours, CRM1-topo IIα complexes were isolated from cells by immunoprecipitation using a combination of both protein A and protein G magnetic beads according to the manufacturer's protocol (Miltenyi Biotec, Cologne, Germany). Co-immunoprecipitation was performed with 2 μg of anti-CRM1 antibody (Santa Cruz Biotechnology, Inc., Santa Cruz, Calif.). Immunoprecipitation samples were separated by SDS-PAGE, transferred to nitrocellulose membranes, and probed with anti-topo IIα Kis1 antibody (Millipore, Corp., Billerica, Mass.) and anti-mouse horseradish peroxidase secondary antibody.

[2] = target: T1, topo IIα; assay: as above; assay type: cell-based; details: RPMI-H929 cells, 100 μM, 24 hours, relative to untreated controls
[3] = tested on: high-density MM cells (H929); assay: Cleaved caspase 3 apoptosis assay, sensitization to doxorubicin; details: for Sensitization of high-density MM cells to doxorubicin / synergism: 25 μM NES inhibitor, doxorubicin 2 μM; for Fold-Increased sensitization to dox: dox/drug (dox 2 μM) divided by dox alone
[4] = target: T1, topo IIα; assay: Immunofluorescence microscopy of intracellular location of topo IIα; assay type: cell-based; details: 25 μM NES inhibitor; for Nuclear export of topo IIα by immunofluorescence: 20 hours, high-density (plateau) MM cells; for Fold-increase nuclear topo IIα: H929 cells, nucleus v cytoplasm fluorescence vs untreated high-density controls
Experimental: Slides were viewed with a fully automated, upright Zeiss Axio-ImagerZ.1 microscope (Carl Zeiss A G, Oberkochen, Germany). Briefly, the DAPI image was used as a mask to segment the nuclear region from the Alexa 594 image. The remaining portion of the Alexa 594 image represents the cytosol, and individual nucleus and cytosol images were analyzed.
H929 cells were mock treated with 0.1% DMSO in media or with 25 μM of NES inhibitor. The high density control cells, seen in FIG. 9(A) show high levels of topo II staining outside the nucleus, evidencing export of topo II from the nucleus.

[5] = tested on: RPMI-8226 (8226); assay: CT-Glo cytotoxicity assay, 8226 cells; assay type: cell-based, human; details: 8226 cells, 72-h CT-Glo, log-phase (low-density), average ± SD, read-out: IC50
Description: (§1) Compounds identified in Example 1 as the top scoring potential inhibitors for each of the two NES (20 each) were obtained from NCI and structures of these molecules confirmed using NMR and mass spectroscopy analysis, seen in FIGS. 4(A)-(C) and 5(A)-(D). The potential inhibitors were followed up using in vitro model cell cultures. MM cell lines NCI-H929 (H929) and RPMI-8226 (8226) were obtained from and tested for authenticity by the American Type Culture Collection (Manassas, Va.). All cell lines were grown as described previously (Turner, et al., Human topoisomerase IIalpha nuclear export is mediated by two CRM-1-dependent nuclear export signals. J Cell Sci 2004; 117: 3061-71).
(§2) The molecules with the highest docking scores were assayed for IC50 values. Cultures were tested for cytotoxicity using the CellTiter-Glo assay (CT-Glo cytotoxicity assay; Promega, Madison, Wis.), a luminescence-based homogeneous method for determining the number of viable cells in culture based on quantitation of the ATP present, which signals the presence of metabolically active cells (Corsino, et al., A novel class of cyclin-dependent kinase inhibitors identified by molecular docking act through a unique mechanism. J Biol Chem 2009; 284: 29945-55; Homsi, et al., Src activation in melanoma and Src inhibitors as therapeutic agents in melanoma. Melanoma Res 2009; 19: 167-75). All cells were assayed at log-phase growth conditions. Luminescence was measured with a Synergy 4 microplate reader (Bio-Tek Instruments, Inc., Winooski, Vt.). IC50 values were determined using a sigmoidal equilibrium model regression using XLfit version 5.2 (ID Business Solutions Ltd., Surrey, UK) (Corsino, et al., A novel class of cyclin-dependent kinase inhibitors identified by molecular docking act through a unique mechanism. J Biol Chem 2009; 284: 29945-55).

[6] = tested on: Kg-1a; assay: CT-Glo cytotoxicity assay, Kg-1a cells; assay type: cell-based; details: 72-h CT-Glo
Experimental: as §2

[7] = tested on: NCI-H929 (H929); assay: CT-Glo cytotoxicity assay, H929 cells; assay type: cell-based, human; details: average ± SD
Description: as §1, §2

[8] = tested on: SK-UT; assay: CT-Glo cytotoxicity assay, SK-UT cells; assay type: cell-based; details: 72-h CT-Glo, average ± SD
Experimental: as §2

[9] = tested on: MCF-7; assay: CT-Glo cytotoxicity assay, MCF-7 cells; assay type: cell-based; details: average ± SD
Experimental: as §2

[10] = tested on: p53; assay: p53 nuclear export in low-density myeloma cells (nuclear fraction Western blot); assay type: cell-based, human; details: H929 at low density (log growth), 25 μM, 20 hours
Experimental: FIG. 14 is a blot of lead compounds tested to determine if nuclear export inhibition was specific to topo IIα protein. p53 was cycled from the nucleus into the cytoplasm in MM cells cultured at log growth conditions. Cells grown at log-phase concentrations were treated with the lead NES inhibitors (25 μM) or a leptomycin control for 20 hours and chemically fractionated. Nuclei were assayed by SDS-PAGE Western blot analysis for p53 protein (anti-p53 (DO-1), Santa Cruz Biotech, Inc). […] Lamin A/C (anti-lamin A/C, BD Pharmingen) is shown as a loading control.
Cells grown at low concentrations were treated with the lead NES inhibitors (25 μM) or a leptomycin B (5 nM) control for 20 hours and chemically fractionated. Nuclei were assayed by SDS-PAGE Western blot analysis for p53 protein.

[11] = tested on: WI-38; assay: CT-Glo cytotoxicity assay, WI-38 cells; assay type: cell-based; details: 72-h CT-Glo
Experimental: as §2

[12] = tested on: HL-60; assay: CT-Glo cytotoxicity assay, HL-60 cells; assay type: cell-based; details: 72-h CT-Glo
Experimental: as §2

[13] = tested on: FLOW; assay: CT-Glo cytotoxicity assay, FLOW cells; assay type: cell-based; details: 72-h CT-Glo, average ± SD
Experimental: as §2

[14] = tested on: PBMC; assay: CT-Glo cytotoxicity assay, PBMC; assay type: cell-based; details: 72-h CT-Glo, average ± SD
Experimental: as §2

[15] = for 1 hour; cited from earlier work
[16] = tested on: topo IIα; details: cited from earlier work
[17] = in vivo; cited from earlier work
[18] = Homo sapiens, NCI-H929, 72-h CT-Glo
[19] = Homo sapiens, MCF7, 72-h CT-Glo

T1 sequence (P11388 whole entry): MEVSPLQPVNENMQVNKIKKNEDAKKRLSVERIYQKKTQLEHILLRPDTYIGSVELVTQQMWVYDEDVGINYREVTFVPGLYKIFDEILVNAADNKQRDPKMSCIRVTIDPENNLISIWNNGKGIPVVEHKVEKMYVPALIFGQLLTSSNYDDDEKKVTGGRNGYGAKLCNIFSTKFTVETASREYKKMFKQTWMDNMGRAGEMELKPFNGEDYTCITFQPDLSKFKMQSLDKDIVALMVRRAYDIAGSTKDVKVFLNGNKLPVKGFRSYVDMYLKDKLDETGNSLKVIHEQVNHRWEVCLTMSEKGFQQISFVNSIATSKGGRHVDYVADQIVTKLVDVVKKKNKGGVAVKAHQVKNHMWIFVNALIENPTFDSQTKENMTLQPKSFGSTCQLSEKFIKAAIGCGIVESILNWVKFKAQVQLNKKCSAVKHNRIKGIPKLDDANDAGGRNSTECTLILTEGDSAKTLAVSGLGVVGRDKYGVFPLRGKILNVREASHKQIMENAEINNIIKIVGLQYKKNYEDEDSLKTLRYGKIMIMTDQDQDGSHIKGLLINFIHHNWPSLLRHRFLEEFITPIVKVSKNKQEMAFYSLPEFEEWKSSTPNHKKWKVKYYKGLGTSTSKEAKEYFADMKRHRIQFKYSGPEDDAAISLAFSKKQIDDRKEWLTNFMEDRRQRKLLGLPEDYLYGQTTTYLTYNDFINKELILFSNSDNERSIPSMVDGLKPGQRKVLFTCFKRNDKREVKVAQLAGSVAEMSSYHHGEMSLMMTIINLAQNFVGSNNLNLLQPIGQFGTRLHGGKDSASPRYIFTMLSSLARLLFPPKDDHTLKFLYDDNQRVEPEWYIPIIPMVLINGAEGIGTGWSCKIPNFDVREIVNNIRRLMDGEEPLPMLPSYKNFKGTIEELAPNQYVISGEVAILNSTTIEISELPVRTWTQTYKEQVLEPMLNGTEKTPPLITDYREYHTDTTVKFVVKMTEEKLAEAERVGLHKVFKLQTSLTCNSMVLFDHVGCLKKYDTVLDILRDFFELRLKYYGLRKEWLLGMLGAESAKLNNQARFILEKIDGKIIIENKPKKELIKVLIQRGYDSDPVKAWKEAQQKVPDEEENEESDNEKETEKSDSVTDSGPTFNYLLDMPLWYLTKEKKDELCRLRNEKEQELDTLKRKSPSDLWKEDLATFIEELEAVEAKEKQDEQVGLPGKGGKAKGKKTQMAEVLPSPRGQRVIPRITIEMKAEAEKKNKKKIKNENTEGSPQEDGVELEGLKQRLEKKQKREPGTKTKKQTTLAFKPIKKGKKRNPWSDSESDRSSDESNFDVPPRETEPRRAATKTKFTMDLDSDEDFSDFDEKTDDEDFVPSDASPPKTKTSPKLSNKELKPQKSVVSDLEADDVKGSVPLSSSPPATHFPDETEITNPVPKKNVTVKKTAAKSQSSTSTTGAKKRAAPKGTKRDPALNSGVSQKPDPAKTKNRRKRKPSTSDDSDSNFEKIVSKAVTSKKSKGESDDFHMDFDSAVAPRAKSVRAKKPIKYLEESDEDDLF

| Compound | Export of topo IIα, nuclear-cytoplasmic fractionation [1] | Cytoplasmic level / nuclear localization of topo IIα, fractionation Western blot [2] | Sensitization of high-density MM cells to doxorubicin / synergism [3] | Nuclear export of topo IIα by immunofluorescence [4] | Fold-Increased sensitization to dox [3] [fold] | IC50 [8] [µM] | Nuclear export of p53 [10] | IC50 [13] [µM] | also measured |
| --- | --- | --- | --- | --- | --- | --- | --- | --- | --- |
| O=C(C[N+]12CN3CN(CN(C3)C1)C2)c1ccc(Br)cc1 [NCI-32237, 1-(4-bromophenyl)-2-(15,3,5,7-tetraazatricyclo[3.3.1.1~3,7~]dec-1-yl)ethanone] | did not affect nuclear export of topo II | did not affect nuclear export of topo II | – | – | – | – | – | – | – |
| O/N=C(/C[N+]12CN3CN(CN(C3)C1)C2)c1ccc(I)cc1 [NCI-35024, 1-(4-iodophenyl)-2-(15,3,5,7-tetraazatricyclo[3.3.1.1~3,7~]dec-1-yl)ethanone oxime] | – | – | significantly (p<0.05) sensitize high density MM cells to doxorubicin | prevent nuclear export of Topo IIα | – | – | – | – | – |
| O=C(Nc1ccc(C2=NCCN2)cc1)c1ccc(C(=O)Nc2ccc(C3=NCCN3)cc2)c([N+](=O)[O-])c1 [NCI-35847, N1,N4-bis(4-(4,5-dihydro-1H-imidazol-2-yl)phenyl)-2-(hydroxy(oxido)amino)terephthalamide] | strongly blocked export of topo IIα | reduced cytoplasmic levels of topo IIα equivalent to that produced by the CRM-1 inhibitor ratjadone C | synergized with the topo II inhibitor doxorubicin; also recorded: significantly (p<0.05) sensitize high density MM cells to doxorubicin | prevent nuclear export of Topo IIα; also recorded: overlapping staining of topo II with DAPI | 2.65 ± 0.90 | 55.3 | did not prevent export of p53 | 62.8 | IC50 [5]: 7.2 ± 1.4 µM; IC50 [6]: 73.8 µM; IC50 ([7]; 72-h CT-Glo): 13.9 µM; IC50 ([9]; 72-h CT-Glo): 68.5 µM; Fold-increase nuclear topo IIα [4]: 2.81 fold; IC50 [11]: 199 µM; IC50 [12]: 36.5 µM |
| O=C(C[N+]12CN3CN(CN(C3)C1)C2)c1ccc2ccccc2c1 [NCI-36400, 1-(2-naphthyl)-2-(15,3,5,7-tetraazatricyclo[3.3.1.1~3,7~]dec-1-yl)ethanone] | – | – | significantly (p<0.05) sensitize high density MM cells to doxorubicin | prevent nuclear export of Topo IIα | – | – | – | – | – |
| Brc1ccc(C[N+]23CN4CN(CN(C4)C2)C3)cc1 [NCI-80640, 1-(4-bromobenzyl)-15,3,5,7-tetraazatricyclo[3.3.1.1~3,7~]decane] | smaller or little effect on topo II nucleus export inhibition | reduced cytoplasmic levels of topo IIα equivalent to that produced by the CRM-1 inhibitor ratjadone C | synergized with the topo II inhibitor doxorubicin | overlapping staining of topo II with DAPI | 2.42 ± 1.09 | 25.5 | significantly inhibit nuclear export of p53 | 35.6 | IC50 ([5]; Homo sapiens, RPMI-8226): 12 ± 4.2 µM; IC50 ([6]; Homo sapiens): 15.2 µM; IC50 [14]: 16.4 µM; IC50 [7, 18]: 16.2 µM; IC50 [9, 19]: 25.9 µM; IC50 ([11]; Homo sapiens): 56.3 µM; IC50 ([12]; Homo sapiens): 11.9 µM |
| Clc1cc(Cl)c(C[N+]23CN4CN(CN(C4)C2)C3)cc1Cl [NCI-155877, 1-(2,4,5-trichlorobenzyl)-15,3,5,7-tetraazatricyclo[3.3.1.1~3,7~]decane] | smaller or little effect on topo II nucleus export inhibition | did not significantly reduce the level of cytoplasmic topo IIα | synergized with the topo II inhibitor doxorubicin | overlapping staining of topo II with DAPI | 2.82 ± 1.18 | 50.4 | did not prevent export of p53 | 56.8 | IC50 ([5]; Homo sapiens, RPMI-8226): 19.5 ± 5.4 µM; IC50 ([6]; Homo sapiens): 31.4 µM; IC50 [14]: 37.2 µM; IC50 [7, 18]: 33.6 µM; IC50 [9, 19]: 37.1 µM; Fold-increase nuclear topo IIα [4]: 3.92 fold; IC50 ([11]; Homo sapiens): 136 µM; IC50 ([12]; Homo sapiens): 20.4 µM |
| CCC(=C/[C@H](C)C/C=C/C(C)=C/[C@@H](C)C(=O)[C@@H](C)[C@H](O)[C@@H](C)C/C(C)=C/C(=O)O)/C=C/[C@@H]1OC(=O)C=C[C@@H]1C [leptomycin B] | – | – | – | – | – | – | – | – | Concentration with acute toxicity in vitro [15]: < 5 nM; Export mediated by topo IIα NES site A and site B [16]: blocked; Toxicity in human phase I trial [17]: acute relative toxicities |
| Ratjadone C [reference compound] | prevented nuclear export | – | – | – | – | – | – | – | – |

Reference: patent publication US9616051B2, “Drug targets to overcome de novo drug-resistance in multiple myeloma” (H. Lee Moffitt Cancer Center and Research Institute, Inc., priority 2008, dated 2017)
